The experiment concerns the target T1, BACE-1 enzyme (Homo sapiens, UniProt P56817).
T1 construct: purchased R & D Systems 931AS
Kind of experiment: BACE Fluorescence Resonance Energy Transfer (FRET) Assay. To be noted: pH 4-4.5, 30 min pre-incubation, about 1.5 hours reaction. It is filed as biochemical. How it is done:
BACE Fluorescence Resonance Energy Transfer (FRET) Assay
In the following assay, the proteolytic activity of BACE is measured by observing cleavage of a fluorescent group from a peptide substrate containing a rhodamine fluorescent donor and a quenching acceptor.
The inhibitory activity of compounds of Formula (I) may be compared to a statine derived control inhibitor STA200 (MP Biomedical Cat. #STA-200). The cleavage reaction occurs when a BACE-1 substrate (Invitrogen, Cat. #P2986) was added to a reaction mixture containing BACE-1 enzyme (R & D Systems, Cat. #931AS) and allowed to proceed for about 1.5 hours. Fluorescence, used as a marker of BACE activity, is monitored using 540 nm excitation and 585 nm emission wavelengths (Envision, Perkin Elmer).
A typical assay reaction contains BACE-1 enzyme—in assay buffer (50 mM sodium acetate, pH 4-4.5, 0.01% CHAPS (3-[(3-Cholamidopropyl)dimethylammonio]-1-propanesulfonate), 0.0125% TritonX-100, 0.006% EDTA) which is pre-incubated for 30 minutes with test compound in 7.5% DMSO. The reaction is initiated with the addition of BACE-1 substrate in assay buffer and allowed to proceed for about 1.5 hours at room temperature. Assays are conducted in black 384-well microtiter plates and scanned at room temperature using 540 nm excitation and 585 nm emission wavelengths.
In some instances, the percent inhibition at a given concentration is reported instead of the IC50.

T1 sequence (P56817 46-457 limits assumed): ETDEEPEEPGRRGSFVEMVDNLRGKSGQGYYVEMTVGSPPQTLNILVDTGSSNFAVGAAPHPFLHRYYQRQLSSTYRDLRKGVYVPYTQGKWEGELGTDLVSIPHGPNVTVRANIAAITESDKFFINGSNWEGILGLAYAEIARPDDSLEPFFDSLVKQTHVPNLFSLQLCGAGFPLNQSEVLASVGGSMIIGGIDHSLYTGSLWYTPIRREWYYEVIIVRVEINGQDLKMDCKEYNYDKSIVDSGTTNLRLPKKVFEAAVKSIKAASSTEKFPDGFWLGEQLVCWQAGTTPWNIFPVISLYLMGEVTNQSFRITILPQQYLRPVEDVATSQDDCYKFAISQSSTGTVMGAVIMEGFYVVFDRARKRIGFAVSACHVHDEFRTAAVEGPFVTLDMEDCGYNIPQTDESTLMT

The term IC50 denotes the midpoint of a concentration-inhibition curve. High values mean lower potency, low ones higher potency. Regarding `Cc1cccn2cc(C(=O)Nc3nc4cc(-c5cc(F)cc(Cl)c5)ccc4[nH]3)nc12` [Example 57, 8-Methyl-imidazo[1,2-a]pyridine-2-carboxylic acid [5-(3-chloro-5-fluoro-phenyl)-1H-benzoimidazol-2-yl]-amide], 0.4 µM corresponded to half-maximal inhibition (IC50).
`Cc1ccc2nc(C(=O)Nc3nc4cc(OCc5ccc(C(F)(F)F)cc5)ccc4[nH]3)cn2c1` [Example 60, 6-Methyl-imidazo[1,2-a]pyridine-2-carboxylic acid [5-(4-trifluoromethyl-benzyloxy)-1H-benzoimidazol-2-yl]-amide] registered an IC50 of 0.45 µM.
The result for `Cc1cccc2nc(C(=O)Nc3nc4cc(-c5cc(Cl)cc(C(F)(F)F)c5)ccc4[nH]3)cn12` [Example 66, 5-Methyl-imidazo[1,2-a]pyridine-2-carboxylic acid [6-(3-chloro-5-trifluoromethyl-phenyl)-1H-benzoimidazol-2-yl]-amide] reads 0.28 µM; that for `Cc1cccc2nc(C(=O)Nc3nc4cc(-c5cc(C(F)(F)F)ccc5Cl)ccc4[nH]3)cn12` [Example 67, 5-Methyl-imidazo[1,2-a]pyridine-2-carboxylic acid [5-(2-chloro-5-trifluoromethyl-phenyl)-1H-benzoimidazol-2-yl]-amide], 0.53 µM; that for `Cc1cccc2nc(C(=O)Nc3nc4cc(-c5ccc(S(C)(=O)=O)cc5)ccc4[nH]3)cn12` [Example 73, 5-Methyl-imidazo[1,2-a]pyridine-2-carboxylic acid [5-(4-methanesulfonyl-phenyl)-1H-benzoimidazol-2-yl]-amide], 1.24 µM.
The value for `Cc1cccc2nc(C(=O)Nc3nc4cc(-c5cccc(S(C)(=O)=O)c5)ccc4[nH]3)cn12` [Example 74, 5-Methyl-imidazo[1,2-a]pyridine-2-carboxylic acid [5-(3-methanesulfonyl-phenyl)-1H-benzoimidazol-2-yl]-amide] was 1.72 µM.
The result for `Cc1cccn2cc(C(=O)Nc3nc4cc(-c5cccc(S(C)(=O)=O)c5)ccc4[nH]3)nc12` [Example 75, 8-Methyl-imidazo[1,2-a]pyridine-2-carboxylic acid [5-(3-methanesulfonyl-phenyl)-1H-benzoimidazol-2-yl]-amide] reads 2.07 µM; that for `CCOc1ccc(-c2ccc3[nH]c(NC(=O)c4cn5cccc(C)c5n4)nc3c2)cc1F` [Example 81, 8-Methyl-imidazo[1,2-a]pyridine-2-carboxylic acid [5-(4-ethoxy-3-fluoro-phenyl)-1H-benzoimidazol-2-yl]-amide], 1.72 µM; that for `Cc1cccc2nc(C(=O)Nc3nc4cc(C5CCCCC5)ccc4[nH]3)cn12` [Example 85, 5-Methyl-imidazo[1,2-a]pyridine-2-carboxylic acid (5-cyclohexyl-1H-benzoimidazol-2-yl)-amide], 1.93 µM.
Take `Cc1cccn2cc(C(=O)Nc3nc4cc(-c5cc(Cl)cc(C(F)(F)F)c5)ccc4[nH]3)nc12` [Example 86, 8-Methyl-imidazo[1,2-a]pyridine-2-carboxylic acid [5-(3-chloro-5-trifluoromethyl-phenyl)-1H-benzoimidazol-2-yl]-amide]: the IC50 worked out at 0.28 µM.
Turning to `Cc1cccn2cc(C(=O)Nc3nc4cc(-c5cc(Cl)ccc5Cl)ccc4[nH]3)nc12` [Example 88, 8-Methyl-imidazo[1,2-a]pyridine-2-carboxylic acid [5-(2,5-dichloro-phenyl)-1H-benzoimidazol-2-yl]-amide], the IC50 was found to be 0.29 µM. This IC50 and that of the compound before are within 1.5-fold of each other.
`COc1ccc(-c2ccc3[nH]c(NC(=O)c4cn5cccc(C)c5n4)nc3c2)cc1C(F)(F)F` [Example 89, 8-Methyl-imidazo[1,2-a]pyridine-2-carboxylic acid [5-(4-methoxy-3-trifluoromethyl-phenyl)-1H-benzoimidazol-2-yl]-amide] showed an IC50 of 2.28 µM.
The result for `Cc1cccc2nc(C(=O)Nc3nc4cc(-c5ccc(OC(C)C)c(Cl)c5)ccc4[nH]3)cn12` [Example 90, 5-Methyl-imidazo[1,2-a]pyridine-2-carboxylic acid [5-(3-chloro-4-isopropoxy-phenyl)-1H-benzoimidazol-2-yl]-amide] reads 0.49 µM; that for `Cc1cccc2nc(C(=O)Nc3nc4cc(-c5ccc(C(F)(F)F)cc5Cl)ccc4[nH]3)cn12` [Example 91, 5-Methyl-imidazo[1,2-a]pyridine-2-carboxylic acid [5-(2-chloro-4-trifluoromethyl-phenyl)-1H-benzoimidazol-2-yl]-amide], 0.44 µM; that for `Cc1cccn2cc(C(=O)Nc3nc4cc(-c5ccc(C(F)(F)F)c(Cl)c5)ccc4[nH]3)nc12` [Example 93, 8-Methyl-imidazo[1,2-a]pyridine-2-carboxylic acid [5-(3-chloro-4-trifluoromethyl-phenyl)-1H-benzoimidazol-2-yl]-amide], 1.78 µM.
The value for `Cc1cccc2nc(C(=O)Nc3nc4cc(-c5cc(F)cc(C(F)(F)F)c5)ccc4[nH]3)cn12` [Example 94, 5-Methyl-imidazo[1,2-a]pyridine-2-carboxylic acid [5-(3-fluoro-5-trifluoromethyl-phenyl)-1H-benzoimidazol-2-yl]-amide] was 0.42 µM.
The value for `Cc1cccn2cc(C(=O)Nc3nc4cc(-c5cc(F)cc(C(F)(F)F)c5)ccc4[nH]3)nc12` [Example 95, 8-Methyl-imidazo[1,2-a]pyridine-2-carboxylic acid [5-(3-fluoro-5-trifluoromethyl-phenyl)-1H-benzoimidazol-2-yl]-amide] was 0.32 µM; that for `Cc1cccc2nc(C(=O)Nc3nc4cc(-c5cnc(N(C)C)nc5)ccc4[nH]3)cn12` [Example 96, 5-Methyl-imidazo[1,2-a]pyridine-2-carboxylic acid [5-(2-dimethylamino-pyrimidin-5-yl)-1H-benzoimidazol-2-yl]-amide] was 1.17 µM.
Take `Cc1cccc2nc(C(=O)Nc3nc4cc(-c5ccc(OC(F)(F)F)cc5)ccc4[nH]3)cn12` [Example 98, 5-Methyl-imidazo[1,2-a]pyridine-2-carboxylic acid [5-(4-trifluoromethoxy-phenyl)-1H-benzoimidazol-2-yl]-amide]: inhibition was half-maximal at 0.44 µM (IC50).
The value for `Cc1cccc2nc(C(=O)Nc3nc4cc(-c5ccc(C6CCCCC6)cc5)ccc4[nH]3)cn12` [Example 101, 5-Methyl-imidazo[1,2-a]pyridine-2-carboxylic acid [5-(4-cyclohexyl-phenyl)-1H-benzoimidazol-2-yl]-amide] was 0.3 µM.
Compound `Cc1cccc2nc(C(=O)Nc3nc4cc(-c5ccc(O)c(F)c5)ccc4[nH]3)cn12` [Example 103, 5-Methyl-imidazo[1,2-a]pyridine-2-carboxylic acid [5-(3-fluoro-4-hydroxy-phenyl)-1H-benzoimidazol-2-yl]-amide] had an IC50 of 1.74 µM.
As to `CCc1cccc2nc(C(=O)Nc3nc4cc(-c5cccc(C(F)(F)F)c5)ccc4[nH]3)cn12` [Example 104, 5-Ethyl-imidazo[1,2-a]pyridine-2-carboxylic acid [5-(3-trifluoromethyl-phenyl)-1H-benzoimidazol-2-yl]-amide], inhibition was half-maximal at 0.31 µM (IC50).
The result for `COc1cc(F)ccc1-c1ccc2[nH]c(NC(=O)c3cn4c(C)cccc4n3)nc2c1` [Example 105, 5-Methyl-imidazo[1,2-a]pyridine-2-carboxylic acid [5-(4-fluoro-2-methoxy-phenyl)-1H-benzoimidazol-2-yl]-amide] reads 1.79 µM.
